Where two headings read alike, the source gives them in different places. Bridge positions count the residues as written; N and C are the ends. Square brackets hold non-standard residues; d marks the D form. Peptide text beside a SMILES is read from it. * marks the point of attachment. NH(3,5-(CF3)2-benzyl) = FC(F)(F)c1cc(CN*)cc(C(F)(F)F)c1; dPen = CC(C)(S)[C@@H](N)C(=O)O; Nle = CCCC[C@H](N)C(=O)O
Tests used:
[1] = target: T1, human δ opioid receptors (hDOR) (Homo sapiens, UniProt P41143); assay: Radioligand competition binding, [3H]DPDPE, hDOR membranes
T1 construct: expressed in transfected cells; host or cells: HN9.10 neuroblastoma cell line, pCDNA3, neomycin-selected clones
T1 sequence (P41143 whole entry): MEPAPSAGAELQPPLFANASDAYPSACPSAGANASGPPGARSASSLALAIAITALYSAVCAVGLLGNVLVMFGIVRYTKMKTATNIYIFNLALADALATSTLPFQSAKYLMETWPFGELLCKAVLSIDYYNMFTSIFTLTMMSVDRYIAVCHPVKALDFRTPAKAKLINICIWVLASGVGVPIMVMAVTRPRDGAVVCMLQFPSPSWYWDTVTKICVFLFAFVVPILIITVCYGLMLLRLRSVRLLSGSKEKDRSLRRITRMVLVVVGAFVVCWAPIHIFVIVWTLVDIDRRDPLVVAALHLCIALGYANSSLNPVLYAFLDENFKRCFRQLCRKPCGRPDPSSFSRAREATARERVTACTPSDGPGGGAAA

[2] = target: T2, rat μ opioid receptors (rMOR) (Rattus norvegicus, UniProt P33535); assay: Radioligand competition binding, [3H]DAMGO, rMOR membranes
T2 construct: expressed in transfected cells; host or cells: HN9.10 neuroblastoma cell line, pCDNA3, neomycin-selected clones
T2 sequence (P33535 whole entry): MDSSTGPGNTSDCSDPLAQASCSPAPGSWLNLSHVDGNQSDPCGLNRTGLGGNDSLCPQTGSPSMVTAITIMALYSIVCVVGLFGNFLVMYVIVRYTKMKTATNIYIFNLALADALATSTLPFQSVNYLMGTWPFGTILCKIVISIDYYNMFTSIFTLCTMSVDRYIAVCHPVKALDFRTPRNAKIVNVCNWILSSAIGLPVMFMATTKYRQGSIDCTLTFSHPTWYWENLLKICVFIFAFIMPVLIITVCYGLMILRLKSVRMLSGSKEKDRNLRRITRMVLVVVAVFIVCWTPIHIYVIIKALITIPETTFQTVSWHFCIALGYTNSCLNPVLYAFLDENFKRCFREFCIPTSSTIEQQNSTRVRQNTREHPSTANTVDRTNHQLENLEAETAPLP

[3] = target: T3, rat NK1 (rNK1) receptor (Rattus norvegicus, UniProt P14600); assay: Radioligand competition binding, [3H]substance P, rNK1/CHO membranes
T3 construct: expressed in transfected cells; host or cells: CHO (rNK-1/CHO cell line from Dr. James Krause)
T3 sequence (P14600 whole entry): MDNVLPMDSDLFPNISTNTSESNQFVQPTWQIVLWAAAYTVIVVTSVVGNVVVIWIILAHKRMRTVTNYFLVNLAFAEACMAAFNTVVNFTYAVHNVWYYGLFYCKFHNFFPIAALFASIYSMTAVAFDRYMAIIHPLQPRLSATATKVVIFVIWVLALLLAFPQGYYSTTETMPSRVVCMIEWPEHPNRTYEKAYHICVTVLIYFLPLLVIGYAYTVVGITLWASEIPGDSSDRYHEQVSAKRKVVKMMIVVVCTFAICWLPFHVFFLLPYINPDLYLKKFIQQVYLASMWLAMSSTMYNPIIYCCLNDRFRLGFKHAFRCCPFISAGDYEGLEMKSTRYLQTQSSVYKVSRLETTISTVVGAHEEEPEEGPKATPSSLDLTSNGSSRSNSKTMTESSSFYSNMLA

[4] = target: T4, human NK1 receptor (hNK1) (Homo sapiens, UniProt P25103); assay: Radioligand competition binding, [3H]-Substance P, hNK1
T4 construct: expressed in transfected cells
T4 sequence (P25103 whole entry): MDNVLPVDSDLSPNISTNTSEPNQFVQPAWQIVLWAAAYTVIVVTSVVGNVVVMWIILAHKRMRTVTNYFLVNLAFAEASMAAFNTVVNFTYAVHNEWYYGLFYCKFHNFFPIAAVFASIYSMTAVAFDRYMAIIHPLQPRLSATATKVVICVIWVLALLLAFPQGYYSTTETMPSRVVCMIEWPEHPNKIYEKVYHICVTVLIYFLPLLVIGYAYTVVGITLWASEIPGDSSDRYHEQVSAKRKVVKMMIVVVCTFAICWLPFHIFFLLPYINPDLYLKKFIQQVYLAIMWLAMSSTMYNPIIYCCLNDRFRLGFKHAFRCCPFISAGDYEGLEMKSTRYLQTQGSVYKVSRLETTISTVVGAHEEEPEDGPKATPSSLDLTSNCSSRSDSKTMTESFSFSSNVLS

[5] = target: T1, human δ opioid receptors (hDOR); assay: [35S]GTP-γ-S binding assay, hDOR; format: biochemical
[6] = target: T2, rat μ opioid receptors (rMOR); assay: biochemical; format: biochemical
[7] = target: T5, δ opioid receptors (MVD) (Mus musculus, UniProt P32300); assay: Mouse isolated vas deferens (MVD) assay, opioid agonist
T5 construct: from tissue; host or cells: mouse (ICR) isolated vas deferens
T5 sequence (P32300 whole entry): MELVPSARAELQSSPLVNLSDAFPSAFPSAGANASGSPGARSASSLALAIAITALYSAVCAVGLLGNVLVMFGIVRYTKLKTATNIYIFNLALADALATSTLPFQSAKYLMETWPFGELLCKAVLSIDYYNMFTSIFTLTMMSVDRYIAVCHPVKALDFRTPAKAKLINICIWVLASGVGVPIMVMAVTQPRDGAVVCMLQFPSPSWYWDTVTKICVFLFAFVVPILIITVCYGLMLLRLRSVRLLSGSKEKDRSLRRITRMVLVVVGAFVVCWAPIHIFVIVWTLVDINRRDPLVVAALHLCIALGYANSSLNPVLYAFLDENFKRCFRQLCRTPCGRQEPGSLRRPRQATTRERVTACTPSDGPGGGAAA

[8] = system: μ opioid receptors (GPI); assay: Guinea pig isolated ileum (GPI) assay, opioid agonist;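 also: inhibition of electrically evoked contractions (0.1 Hz, 0.4 msec, supramaximal voltage) in organ baths at 37 °C, contraction height 3 min after each cumulative dose versus the 1 min before dosing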
[9] = target: T6, Substance P receptors (guinea pig NK1) (Cavia porcellus, UniProt P30547); assay: Guinea pig isolated ileum (GPI) assay with substance P stimulation in presence of 1 μM naloxone
T6 construct: from tissue; host or cells: guinea pig (Hartley) ileum LMMP, 1 μM naloxone present
T6 sequence (P30547 whole entry): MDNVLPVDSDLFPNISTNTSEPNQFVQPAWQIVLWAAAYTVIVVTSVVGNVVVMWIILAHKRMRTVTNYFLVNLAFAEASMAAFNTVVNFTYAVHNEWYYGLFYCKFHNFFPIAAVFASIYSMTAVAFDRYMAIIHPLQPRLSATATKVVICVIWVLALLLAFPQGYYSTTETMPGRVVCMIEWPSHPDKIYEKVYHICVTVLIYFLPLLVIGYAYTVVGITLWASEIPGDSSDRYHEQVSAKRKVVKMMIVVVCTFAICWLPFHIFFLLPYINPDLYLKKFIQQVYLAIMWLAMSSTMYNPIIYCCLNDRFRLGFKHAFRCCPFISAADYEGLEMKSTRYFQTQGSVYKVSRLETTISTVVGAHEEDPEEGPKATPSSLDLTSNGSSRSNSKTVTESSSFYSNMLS

[10] = In vitro stability in rat plasma at 37° C.; format: in vitro ADME
Method: The derivative compounds were tested for their metabolite stability. The compounds were incubated in rat plasma at 37° C., and aliquots were withdrawn at various time points and analyzed by HPLC to determine the concentration of remaining compound derivatives (FIGS. 15-16, 36, and 47-48).
In Vitro Stability of compound derivatives in Rat Plasm (Yamamoto, 2007, J. Am. Chem. Soc. submitted). Stock solution of compounds (50 mg/mL in DMSO) were diluted 1000-fold into rat plasma (Lot 24927, Pel-Freez Biologicals, Rogers, Ak.) to result in an incubation concentration of 50 μg/mL. All samples were incubated at 37° C. for 6 h, and 200 μL of aliquots were withdrawn at 1 h, 2 h, 4 h and 6 h. […] The samples were run in triplicate. Discussion.

[11] = Table 39, read-out: GTP binding hDOR Emax
[12] = Table 39, read-out: GTP binding rMOR Emax
[13] = Table 39, read-out: GPI/LMMP opioid(mu) agonist (IC50; nM)

`CC(C)C[C@H](NC(=O)[C@@H]1CCCN1C(=O)CNC(=O)[C@H](Cc1ccccc1)NC(=O)CNC(=O)[C@@H](C)NC(=O)[C@@H](N)Cc1ccc(O)cc1)C(=O)N[C@@H](Cc1c[nH]c2ccccc12)C(=O)OCc1cc(C(F)(F)F)cc(C(F)(F)F)c1` [TY006, H-Tyr-D-Ala-Gly-Phe-Gly-Pro-Leu-Trp-O-3,5-Bzl(CF3)2] (HELM PEPTIDE1{Y.[dA].G.F.G.P.L.W.[FC(F)(F)c1cc(CO[*:1])cc(C(F)(F)F)c1]}$$$$V2.0) showed a Ki ([1]; Table 27, read-out: Affinity hDOR (Ki; nM)) of 36.1 nM, a Ki ([1]; Table 39, read-out: Affinity hDOR (Ki; nM)) of 36.1 nM and a Ki ([1]; read-out: Ki, hDOR, [3H]DPDPE) of 36.1 nM. For the same compound, the Ki ([2]; Table 27, read-out: Affinity rMOR (Ki; nM)) was 27 nM, the Ki ([2]; Table 39, read-out: Affinity rMOR (Ki; nM)) was 27 nM and the “LogIC50, rMOR, [3H]DAMGO” value ([2]; membranes from transfected HN9.10 cells) was −7.24 ± 0.15. It also gave a Ki ([2]; read-out: Ki, rMOR, [3H]DAMGO) of 27 nM, an IC50 ([3]; IC50, rNK1, Substance P radioligand, membranes from transfected CHO cells) of 15.6 nM and a Ki [4] of 0.016 nM. The “LogEC50, hDOR, [35S]GTP-γ-S binding” value [5] was −7.30 ± 0.24, the EC50 ([5]; Table 27, read-out: GTP binding hDOR EC50) was 50.2 nM and the Emax ([5]; Table 27, read-out: GTP binding hDOR Emax (%)) was 33.6%. It also gave an EC50 ([5]; Table 39, read-out: GTP binding hDOR EC50) of 50.2 nM, an Emax [5, 11] of 33.6% and an Emax ([5]; net total bound/basal binding × 100, read-out: Emax, hDOR, [35S]GTP-γ-S binding) of 35%. For the same compound, the EC50 ([5]; read-out: EC50, hDOR, [35S]GTP-γ-S binding) was 50.2 nM, the “LogEC50, rMOR, [35S]GTP-γ-S binding” value [6] was −7.38 ± 0.20 and the EC50 ([6]; Table 27, read-out: GTP binding rMOR EC50) was 41.7 nM. The Emax ([6]; Table 27, read-out: GTP binding rMOR Emax (%)) was 35.9%, the EC50 ([6]; Table 39, read-out: GTP binding rMOR EC50) was 41.7 nM and the Emax [6, 12] was 35.9%. It also gave an Emax ([6]; net total bound/basal binding × 100, read-out: Emax, rMOR, [35S]GTP-γ-S binding) of 39%, an EC50 ([6]; read-out: EC50, rMOR, [35S]GTP-γ-S binding) of 41.7 nM and an IC50 [7] of 172 ± 26 nM. The IC50 ([7]; Table 28, read-out: MVD Opioid (d) Agonist (IC50; nM)) was 172 nM, the IC50 ([7]; Table 39, read-out: MVD opioid(delta) agonist (IC50; nM)) was 172 nM and the IC50 ([7]; electrically stimulated isolated tissue, read-out: MVD (δ), IC50) was 171 nM. It also gave an IC50 ([8]; Table 28, read-out: GPI/LMMP Opioid(m) Agonist (IC50; nM)) of 384 nM, an IC50 [8, 13] of 384 nM and an IC50 ([8]; electrically stimulated isolated tissue, read-out: GPI (μ), IC50) of 384 nM. For the same compound, the IC50 [9] was 5.4 nM, the Kb ([9]; Substance P antagonist, GPI, Ke, in the presence of 1 μM naloxone) was 5.4 ± 1.4 nM and the activation at 1 µM ([9]; read-out: Substance P GPI agonist (A50), at 1 μM, contraction relative to initial muscle contraction with KCl) was 0%.

With `CSCC[C@H](NC(=O)[C@H](Cc1ccccc1)NC(=O)CNC(=O)[C@@H](C)NC(=O)[C@@H](N)Cc1c(C)cc(O)cc1C)C(=O)N1CCC[C@H]1C(=O)N[C@@H](CC(C)C)C(=O)N[C@@H](Cc1c[nH]c2ccccc12)C(=O)OCc1cc(C(F)(F)F)cc(C(F)(F)F)c1` [TY033] the Ki [1] was 0.22 nM, the Ki [2] was 1.2 nM and the Ki ([3]; Affinity rNK1 (Ki; nM), Table 29) was 0.96 nM. It also gave a Ki [4] of 1.2 nM, an Emax [5, 11] of 200% and an Emax [6, 12] of 59%. For the same compound, the IC50 [7] was 1.27 nM, the IC50 ([8]; Table 30, read-out: GPI/LMMP Opioid(m) Agonist (IC50; nM)) was 100 nM and the IC50 [8, 13] was 100 nM. It also gave a Kb ([9]; GPI/LMMP Substance P Antagonist (Ke; nM), Table 30) of 24.5 nM.

Work on `CCCC[C@@H]1NC(=O)[C@H](Cc2ccccc2)NC(=O)CNC(=O)[C@H](NC(=O)[C@@H](N)Cc2ccc(O)cc2)C(C)(C)SSC(C)(C)[C@H](C(=O)N[C@@H](Cc2c[nH]c3ccccc23)C(=O)NCc2cc(C(F)(F)F)cc(C(F)(F)F)c2)NC(=O)[C@@H]2CCCN2C1=O` [TY048] (H-Y[dPen]GF[Nle]P[dPen]W-{NH(3,5-(CF3)2-benzyl)}; disulfide 2-7; N-terminus assumed) yielded a Ki ([3]; Table 23, read-out: Affinity rNK1 (Ki; nM)) of 26 nM, an Emax [6, 12] of 29% and a half-life at 50 μg/mL ([10]; rat, rat plasma, FIG. 47, read-out: T1/2 in rat plasma) greater than 1440 min.

Work on `CCCC[C@H](NC(=O)[C@H](Cc1ccccc1)NC(=O)CNC(=O)[C@@H](C)NC(=O)[C@@H](N)Cc1ccc(O)cc1)C(=O)N1CCC[C@H]1C(=O)N[C@@H](CC(C)C)C(=O)N[C@@H](COC1O[C@H](CO)[C@@H](O)[C@H](O)[C@H]1O)C(=O)N[C@@H](Cc1c[nH]c2ccccc12)C(=O)NCc1cc(C(F)(F)F)cc(C(F)(F)F)c1` (stereo partly drawn) [TY055] yielded a Ki [2] of 30 nM, a Ki [4] of 0.052 nM and an IC50 [7] of 17.4 nM. For the same compound, the “GPI/LMMP SP Agonist (IC50; nM)” value ([9]; Table 39, at 30 nM) was “none” and the “stability in the rat plasma” value ([10]; words) was “stable”.

— patent publication US8026218B2, “Bifunctional analgesic compounds for opioid receptor agonists and neurokinin-1 receptor antagonists” (The University of Arizona, priority 2006, dated 2011)
